# From PMC11588247, “Antimicrobial and antioxidant activities of peptide derived from turmeric plant (Curcuma longa L)” (PLOS ONE, 2024)
# Ends that are not written are not given here.
# Legend:
# [1] = tested on: Vibrio parahaemolyticus (ATCC 17802); assay: Antimicrobial activity assay (broth culture, MTT read-out); assay type: cell-based; conditions: ATCC17802, sample 100 μg/mL, 6 h at 37°C, MTT OD570 vs inoculated broth control, read-out: Inhibitory Percentage (Means±SD), Vibrio parahaemolyticus ATCC 17802
# Text: (§1) Pathogenic microorganism composes of Escherichia coli (ATCC 25922), Staphylococcus aureus (ATCC 25923), Staphylococcus epidermidis (ATCC 12228), Bacillus subtilis (ATCC 6633), Bacillus cereus (ATCC 11778), Pseudomonas aeruginosa (ATCC 27853), Vibrio parahaemolyticus (ATCC 17802), Klebsiella pneumoniae (ATCC 27736), Acinetobacter baumannii (ATCC 19606), Enterobacter cloacae (ATCC 13047), Salmonella enterica (ATCC 13311), and Salmonella Typhi (ATCC 22842) were used in the experiments.
# (§2) Bacteria were initially cultured on Tryptic Soy Agar (TSA) plates at 37°C for 12–16 hours. A single colony was transferred to Tryptic Soy Broth (TSB) and incubated at 37°C with gently agitation at 100 rpm, for an additional 12–16 hours. The bacterial concentration was adjusted to an optical density at 600 nm (OD600) of 0.05, corresponding to 4 x 10^7 CFU/mL, before being added to a 96-well plate (50 μL per well). Subsequently, 50 μL of protein hydrolysate or peptide was inoculated into each well at a final concentration of 100 μg/mL, and the mixture was incubated at 37°C with continuous shaking at 100 rpm for 6 hours. Wells with inoculated broth alone served as a negative control, while wells containing Ampicillin (100 μg/mL) served as a positive control. Following incubation, 25 μL of a 100 μg/mL MTT (3-(4,5-dimethylthiazol-2-yl)-2,5-diphenyltetrazolium bromide) solution was added to each well, thoroughly mixed, and incubated at room temperature for 4 hours. The optical density at 570 nm (OD570nm) was subsequently measured using a microplate reader (Synergy H1 Hybrid Multi-Mode Reader, Biotek, Winusky, VT, USA). The percentage of inhibition was calculated using the provided equation: [(OD570control–OD570test)/OD570control]×100 (1)
# [2] = tested on: Salmonella Typhi (ATCC 22842); assay: as above; assay type: cell-based; conditions: Salmonella enterica, 6 h, read-out: Inhibitory Percentage (Means±SD), Salmonella Typhi ATCC 22842
# Text: as §1, §2
# [3] = tested on: Enterobacter cloacae (ATCC 13047); assay: as above; assay type: cell-based; conditions: ATCC13047, sample 100 μg/mL, 6 h at 37°C, MTT OD570 vs inoculated broth control, read-out: Inhibitory Percentage (Means±SD), Enterobacter cloacae ATCC 13047
# Text: as §1, §2
# [4] = tested on: Escherichia coli (ATCC 25922); assay: as above; assay type: cell-based; conditions: ATCC25922, sample 100 μg/mL, 6 h at 37°C, MTT OD570 vs inoculated broth control, read-out: Inhibitory Percentage (Means±SD), Escherichia coli ATCC 25922
# Text: as §1, §2
# [5] = tested on: Klebsiella pneumoniae (ATCC 27736); assay: as above; assay type: cell-based; conditions: ATCC27736, sample 100 μg/mL, 6 h at 37°C, MTT OD570 vs inoculated broth control, read-out: Inhibitory Percentage (Means±SD), Klebsiella pneumoniae ATCC 27736
# Text: as §1, §2
# [6] = tested on: Bacillus subtilis (ATCC 6633); assay: as above; assay type: cell-based; conditions: ATCC6633, sample 100 μg/mL, 6 h at 37°C, MTT OD570 vs inoculated broth control, read-out: Inhibitory Percentage (Means±SD), Bacillus subtilis ATCC 6633
# Text: as §1, §2
# [7] = tested on: Pseudomonas aeruginosa (ATCC 27853); assay: as above; assay type: cell-based; conditions: ATCC27853, sample 100 μg/mL, 6 h at 37°C, MTT OD570 vs inoculated broth control, read-out: Inhibitory Percentage (Means±SD), Pseudomonas aeruginosa ATCC 27853
# Text: as §1, §2
# [8] = tested on: Bacillus cereus (ATCC 11778); assay: as above; assay type: cell-based; conditions: ATCC11778, sample 100 μg/mL, 6 h at 37°C, MTT OD570 vs inoculated broth control, read-out: Inhibitory Percentage (Means±SD), Bacillus cereus ATCC 11778
# Text: as §1, §2
# [9] = tested on: Staphylococcus aureus (ATCC 25923); assay: microbe, parasite or virus in culture; assay type: cell-based; conditions: sample 100 μg/mL, 6 h at 37°C, MTT OD570 vs inoculated broth control
# Text: as §1, §2
# [10] = tested on: Salmonella enterica (ATCC 13311); assay: microbe, parasite or virus in culture; assay type: cell-based; conditions: sample 100 μg/mL, 6 h at 37°C, MTT OD570 vs inoculated broth control
# Text: as §1, §2
# [11] = tested on: Staphylococcus epidermidis (ATCC 12228); assay: microbe, parasite or virus in culture; assay type: cell-based; conditions: sample 100 μg/mL, 6 h at 37°C, MTT OD570 vs inoculated broth control
# Text: as §1, §2
# [12] = tested on: Acinetobacter baumannii (ATCC 19606); assay: microbe, parasite or virus in culture; assay type: cell-based; conditions: sample 100 μg/mL, 6 h at 37°C, MTT OD570 vs inoculated broth control
# Text: as §1, §2
# [13] = DPPH radical scavenging assay; conditions: 10 μL sample + 190 μL 0.1 mM DPPH, 30 min dark, room temperature, absorbance 517 nm, ascorbic acid standard; hydrolysate at 100 μg/mL
# Procedure: The DPPH radical scavenging activity of the sample was evaluated following the protocol by Muangrod et al. with slight modifications. Briefly, 190 μL of 0.1 mM DPPH was mixed with 10 μL of the sample or standard ascorbic acid in each well and incubated at room temperature in the dark for 30 minutes. The absorbance of the mixture was measured at 517 nm using a microplate reader (Synergy H1 Hybrid Multi-Mode Reader, Biotek, Winusky, VT, USA). The percentage inhibition of DPPH radical scavenging activity was calculated using the following equation: %DPPHinhibition=[(Acontrol−Asample)/Acontrol]×100 (2) where A control means the absorbance of the control that contained all reagents except the test samples, and A sample means the absorbance of the mixture (sample and 0.1 mM DPPH). Ascorbic acid was used as the standard. Results were expressed as μg ascorbic acid equivalent (μg AAE g^−1).
# [14] = FRAP (ferric ion-reducing antioxidant power) assay; conditions: 10 μL sample + 190 μL FRAP reagent (acetate pH 3.6, TPTZ, FeCl3), 30 min dark, absorbance 593 nm, ascorbic acid standard; hydrolysate at 100 μg/mL
# Procedure: The ferric ion-reducing antioxidant power assay was analyzed according to the method by Rumpf et al. with minor modifications. Briefly, the FRAP reagent was prepared from 300 mM sodium acetate (pH 3.6) and 10 mM TPTZ (2,4,6-tris (2-pyridyl)-s-triazine) in 40 mM HCl and 20 mM ferric chloride at the ratio of 10:1:1, respectively. Then, a 10 μL aliquot of the sample or standard was mixed with 190 μL of the FRAP reagent before incubating in the dark for 30 minutes. The absorbance was measured at 593 nm using a microplate reader (Synergy H1 Hybrid Multi-Mode Reader, Biotek, Winusky, VT, USA). Ascorbic acid (Sigma-Aldrich, Singapore) was used as the standard. Results were expressed as micrograms of ascorbic acid equivalent per gram (μg AAE g^−1).
# [15] = ABTS radical scavenging assay; conditions: 10 μL sample + 190 μL ABTS solution, 5 min dark, absorbance 750 nm, ascorbic acid standard; hydrolysate at 100 μg/mL
# Procedure: Radical scavenging antioxidant activity was determined according to the ABTS radical scavenging activity following the method described by Re et al. with slight modifications. Briefly, the solution of ABTS radical was prepared from the reaction between 7 mM ABTS (2,2-azino-bis (3-ethylbenzothiazoline-6-sulphonic acid) diammonium salt) and 2.45 mM ammonium persulphate. The resulting ABTS solution was diluted with distilled water to achieve an optical density of 0.7 at 750 nm. Then, a sample or standard of 10 μL was mixed with 190 μL of ABTS solution and incubated for 5 minutes in the dark. The absorbance was measured at 750 nm by a microplate reader (Synergy H1 Hybrid Multi-Mode Reader, Biotek, Winusky, VT, USA). Ascorbic acid was used as the standard.
Compound,DPPH radical scavenging activity (antioxidant activity ± SD) [13] [μg AAE g^−1],FRAP (antioxidant activity ± SD) [14] [μg AAE g^−1],ABTS radical-scavenging activity (antioxidant activity ± SD) [15] [μg AAE g^−1],also measured
CC1(C)S[C@@H]2[C@H](NC(=O)[C@H](N)c3ccccc3)C(=O)N2[C@H]1C(=O)O [Ampicillin],–,–,–,"inhibition at 100 µg/mL [1]: -45.8 ± 1.54%; inhibition at 100 µg/mL [2]: 8.6 ± 0.22%; inhibition at 100 µg/mL [3]: 15.6 ± 0.89%; inhibition at 100 µg/mL [4]: 82.1 ± 2.62%; inhibition at 100 µg/mL [5]: -19.1 ± 1.32%; inhibition at 100 µg/mL [6]: 96.5 ± 4.03%; inhibition at 100 µg/mL [7]: 16.3 ± 0.87%; inhibition at 100 µg/mL [8]: 35.9 ± 1.46%; inhibition at 100 µg/mL ([9]; Staphylococcus aureus, ATCC25923, read-out: Inhibitory Percentage (Means±SD), Staphylococcus aureus ATCC 25923): -2.72 ± 0.02%; inhibition at 100 µg/mL ([10]; Salmonella enterica, ATCC13311, read-out: Inhibitory Percentage (Means±SD), Salmonella enterica ATCC 13311): 84.6 ± 4.34%; inhibition at 100 µg/mL ([11]; Staphylococcus epidermidis, ATCC12228, read-out: Inhibitory Percentage (Means±SD), Staphylococcus epidermidis ATCC 12228): 7.42 ± 0.23%; inhibition at 100 µg/mL ([12]; Acinetobacter baumannii, ATCC19606, read-out: Inhibitory Percentage (Means±SD), Acinetobacter baumannii ATCC 19606): 42 ± 4.67%"
ARLLLLKP [Cur-8],0.58±0.00,1.05±0.01,0.13±0.00,–
HAFRDAVTPLE [Cur-12],0.60±0.06,1.04±0.01,0.02±0.00,–
KLHLLILI [Cur-1],0.63±0.04,1.05±0.01,0.22±0.00,"Inhibitory Percentage (Means±SD), Staphylococcus aureus ATCC 25923 ([9]; listed as Cur-25): inhibited growth; Inhibitory Percentage (Means±SD), Salmonella enterica ATCC 13311 ([10]; listed as Cur-25): inhibited growth; Inhibitory Percentage (Means±SD), Staphylococcus epidermidis ATCC 12228 ([11]; listed as Cur-25): inhibited growth; Inhibitory Percentage (Means±SD), Acinetobacter baumannii ATCC 19606 ([12]; listed as Cur-25): inhibited growth"
LKKPVILL [Cur-11],0.68±0.02,1.05±0.01,0.17±0.01,–
LKKTLLLVNKADLLP [Cur-5],0.62±0.01,1.04±0.00,0.12±0.00,–
PKVKILIL [Cur-4],0.77±0.01,1.08±0.09,0.15±0.00,–
PLKLLLPL [Cur-7],0.74±0.02,1.04±0.00,0.15±0.00,–
PLLLKLIV [Cur-2],0.75±0.03,1.05±0.01,0.13±0.00,"Inhibitory Percentage (Means±SD), Staphylococcus aureus ATCC 25923 ([9]; listed as Cur-14): inhibited growth; Inhibitory Percentage (Means±SD), Salmonella enterica ATCC 13311 ([10]; listed as Cur-14): inhibited growth; Inhibitory Percentage (Means±SD), Staphylococcus epidermidis ATCC 12228 ([11]; listed as Cur-14): inhibited growth; Inhibitory Percentage (Means±SD), Acinetobacter baumannii ATCC 19606 ([12]; listed as Cur-14): inhibited growth"
QIILLLLKP [Cur-9],0.70±0.00,1.04±0.02,0.07±0.00,–
VHVLLLIL [Cur-10],0.75±0.04,1.04±0.00,0.30±0.01,–
VKLKIPLLIL [Cur-3],0.67±0.00,1.04±0.00,0.08±0.00,–
VLKKLLPLL [Cur-6],0.67±0.06,1.05±0.00,0.09±0.01,–
